Data as given in publication PMC3566180, “Glucose 6P Binds and Activates HlyIIR to Repress Bacillus cereus Haemolysin hlyII Gene Expression” (PLoS ONE, 2013).

Key:
HlyIIR = target: T1, HlyIIR (Bacillus thuringiensis, UniProt A0A1W6WQG6); assay: isothermal titration calorimetry (ITC200, […]°C, […] purified HlyIIR, N = […]); type: binding
T1 construct: gene CAB88_17715; hlyIIR gene amplified from the Bt407 chromosome, GST-tagged (pGEX6P1), tag removed with Precission protease

[1] = system: HlyIIR (Bacillus cereus Bt407); assay: ITC; settings: ITC200, 20 C, protein storage buffer (composition and pH not given), 28 uM HlyIIR in cell, 1.25 uM DNA injected (20 x 2 ul)

T1 sequence (A0A1W6WQG6 entry or part of it): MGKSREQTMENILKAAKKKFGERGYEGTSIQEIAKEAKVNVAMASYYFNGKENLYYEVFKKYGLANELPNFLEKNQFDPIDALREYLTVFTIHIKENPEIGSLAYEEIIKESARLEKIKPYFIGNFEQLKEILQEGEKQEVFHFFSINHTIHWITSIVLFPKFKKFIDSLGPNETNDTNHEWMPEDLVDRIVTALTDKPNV

O=P(O)(O)OC[C@H]1OC(O)[C@H](O)[C@@H](O)[C@@H]1O (some centres unmarked) [glucose 6P]
Kd (HlyIIR): ~10.8 µM

hlyII promoter fragment (220 bp)
Kd [1]: 0.11 µM
